# Data reported in patent US12630600B2 (MEDIMMUNE LIMITED, priority 2022, dated 2026).
# Starred links: 1 amine or outer side, 2 acyl side, 3 side chain; linkers in the order of their positions; H or OH if unused. Non-standard residues stand in square brackets, D forms with d. Residues, ends and D or L forms follow the SMILES beside them. Groups on a side chain read outwards from the residue. *: point of attachment. C20 diacid = O=C(O)CCCCCCCCCCCCCCCCCCC(=O)*; C18 diacid = O=C(O)CCCCCCCCCCCCCCCCC(=O)*; γGlu = O=C(O)[C@H](CCC(=O)[*:2])N[*:1]; αMeF = C[C@](N)(Cc1ccccc1)C(=O)O; PEG2 = NCCOCCOCCC(=O)O; AEEA = NCCOCCOCC(=O)O; Aib = CC(C)(N)C(=O)O
# Target: T1, human GLP-1 receptor (hGLP-1R) (Homo sapiens, UniProt P43220)
# T1 construct: expressed in transfected cells; host or cells: CHO
# T1 sequence (P43220 24-463): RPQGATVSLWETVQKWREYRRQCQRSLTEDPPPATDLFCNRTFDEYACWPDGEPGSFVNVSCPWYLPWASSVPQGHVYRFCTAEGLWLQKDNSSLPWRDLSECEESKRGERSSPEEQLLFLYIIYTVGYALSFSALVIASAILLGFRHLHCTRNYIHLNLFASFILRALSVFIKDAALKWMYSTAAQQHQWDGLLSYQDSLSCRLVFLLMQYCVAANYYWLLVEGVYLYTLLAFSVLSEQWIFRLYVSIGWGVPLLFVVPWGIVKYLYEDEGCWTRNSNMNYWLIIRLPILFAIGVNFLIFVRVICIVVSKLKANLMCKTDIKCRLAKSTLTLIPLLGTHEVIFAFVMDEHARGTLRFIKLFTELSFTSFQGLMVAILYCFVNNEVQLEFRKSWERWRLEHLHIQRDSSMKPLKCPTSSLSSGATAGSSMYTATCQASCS
# Assay: cAMP production (HTRF) in CHO cells expressing human GLP-1 receptor
# Type: cell-based
# Conditions: Table 8; % GLP-1R activity relative to GLP-1 / % GlucR activity relative to glucagon
# Protocol: Cells were re-suspended in assay buffer at a batch-dependent optimized concentration (typically hGLP-1R cells at 1×10^5 cells/mL, hGCGR cells at 2×10^5 cells/mL).
# Cells were added to the assay plate using a multidrop dispenser and incubated at room temperature for 30 minutes before measuring the cAMP level using a cAMP dynamic 2 homogeneous time resolved Fluorescence (HTRF) kit (Cisbio Bioassays #62AM4PEJ) following the two-step protocol as per manufacturer's recommendations. In brief, anti-cAMP cryptate (donor fluorophore) and cAMP-d2 (acceptor fluorophore) were made up separately by diluting each 1 in 20 in conjugate and lysis buffer provided in the kit. Anti-cAMP cryptate was added to all wells of the assay plate, followed by cAMP-d2 added to all wells except non-specific binding (NSB) wells (to which conjugate and lysis buffer was added).
# Data was transformed to % Delta F as described in the manufacturer's guidelines and analyzed by 4-parameter logistic fit to determine EC50 values.
row,Molecule,% Relative Potency Ratio
1,CC[C@H](C)[C@H](NC(=O)C(C)(C)NC(=O)[C@H](CCCCNC(=O)COCCOCCNC(=O)COCCOCCNC(=O)CC[C@H](NC(=O)CCCCCCCCCCCCCCCCC(=O)O)C(=O)O)NC(=O)[C@@H](NC(=O)[C@H](Cc1ccccc1)NC(=O)[C@H](CC(=O)O)NC(=O)[C@H](CCC(N)=O)NC(=O)[C@H](C)NC(=O)[C@H](C)NC(=O)[C@H](CCCNC(=N)N)NC(=O)[C@H](CO)NC(=O)[C@H](CC(=O)O)NC(=O)[C@H](CC(C)C)NC(=O)[C@](C)(Cc1ccccc1)NC(=O)[C@H](CCCCN)NC(=O)[C@H](CO)NC(=O)[C@@H](NC(=O)[C@H](CC(=O)O)NC(=O)[C@H](CO)NC(=O)[C@@H](NC(=O)[C@](C)(Cc1ccccc1)NC(=O)[C@H](CO)NC(=O)CNC(=O)[C@H](Cc1c[nH]cn1)NC(=O)C(C)(C)NC(=O)[C@@H](N)Cc1c[nH]cn1)[C@@H](C)O)C(C)C)C(C)C)C(=O)N[C@@H](C)C(=O)N[C@@H](CC(N)=O)C(=O)N[C@H](C(N)=O)[C@@H](C)O [Peptide 366] (H-H[Aib]HGS[αMeF]TSDVSK[αMeF]LDSRAAQDFVK([AEEA-AEEA-γGlu-C18 diacid])[Aib]IANT-NH2; N-terminus assumed),1.7
2,CC[C@H](C)[C@H](NC(=O)C(C)(C)NC(=O)[C@H](CCCCNC(=O)COCCOCCNC(=O)COCCOCCNC(=O)CC[C@H](NC(=O)CCCCCCCCCCCCCCCCCCC(=O)O)C(=O)O)NC(=O)[C@@H](NC(=O)[C@H](Cc1ccccc1)NC(=O)[C@H](CC(=O)O)NC(=O)[C@H](CCC(N)=O)NC(=O)[C@H](C)NC(=O)[C@H](C)NC(=O)[C@H](CCCNC(=N)N)NC(=O)[C@H](CO)NC(=O)[C@H](CC(=O)O)NC(=O)[C@H](CC(C)C)NC(=O)[C@](C)(Cc1ccccc1)NC(=O)[C@H](CCCCN)NC(=O)[C@H](CO)NC(=O)[C@@H](NC(=O)[C@H](CC(=O)O)NC(=O)[C@H](CO)NC(=O)[C@@H](NC(=O)[C@](C)(Cc1ccccc1)NC(=O)[C@H](CO)NC(=O)CNC(=O)[C@H](Cc1c[nH]cn1)NC(=O)C(C)(C)NC(=O)[C@@H](N)Cc1c[nH]cn1)[C@@H](C)O)C(C)C)C(C)C)C(=O)N[C@@H](C)C(=O)N[C@@H](CC(N)=O)C(=O)N[C@H](C(N)=O)[C@@H](C)O [Peptide 369] (H-H[Aib]HGS[αMeF]TSDVSK[αMeF]LDSRAAQDFVK([AEEA-AEEA-γGlu-C20 diacid])[Aib]IANT-NH2),3.8
3,CC[C@H](C)[C@H](NC(=O)[C@H](Cc1c[nH]c2ccccc12)NC(=O)[C@H](CCCCNC(=O)COCCOCCNC(=O)COCCOCCNC(=O)CC[C@H](NC(=O)CCCCCCCCCCCCCCCCCCC(=O)O)C(=O)O)NC(=O)[C@@H](NC(=O)[C@H](Cc1ccccc1)NC(=O)[C@H](CC(=O)O)NC(=O)[C@H](CCC(N)=O)NC(=O)[C@H](C)NC(=O)[C@H](C)NC(=O)[C@H](CCCNC(=N)N)NC(=O)[C@H](CO)NC(=O)[C@H](CC(=O)O)NC(=O)[C@H](CC(C)C)NC(=O)[C@](C)(Cc1ccccc1)NC(=O)[C@H](CCCCN)NC(=O)[C@H](CO)NC(=O)[C@@H](NC(=O)[C@H](CC(=O)O)NC(=O)[C@H](CO)NC(=O)[C@@H](NC(=O)[C@](C)(Cc1ccccc1)NC(=O)[C@H](CO)NC(=O)CNC(=O)[C@H](Cc1c[nH]cn1)NC(=O)C(C)(C)NC(=O)[C@@H](N)Cc1c[nH]cn1)[C@@H](C)O)C(C)C)C(C)C)C(=O)N[C@@H](C)C(=O)N[C@@H](CC(N)=O)C(=O)N[C@H](C(N)=O)[C@@H](C)O [Peptide 367] (H-H[Aib]HGS[αMeF]TSDVSK[αMeF]LDSRAAQDFVK([AEEA-AEEA-γGlu-C20 diacid])WIANT-NH2; N-terminus assumed),1.0
4,CC[C@H](C)[C@H](NC(=O)[C@H](Cc1c[nH]c2ccccc12)NC(=O)[C@H](CCCCNC(=O)CCOCCOCCNC(=O)CCOCCOCCNC(=O)CC[C@H](NC(=O)CC[C@H](NC(=O)CCCCCCCCCCCCCCCCC(=O)O)C(=O)O)C(=O)O)NC(=O)[C@@H](NC(=O)[C@H](Cc1ccccc1)NC(=O)[C@H](CC(=O)O)NC(=O)[C@H](CCC(N)=O)NC(=O)[C@H](C)NC(=O)[C@H](C)NC(=O)[C@H](CCC(N)=O)NC(=O)[C@H](CO)NC(=O)[C@H](CC(=O)O)NC(=O)[C@H](CC(C)C)NC(=O)[C@](C)(Cc1ccccc1)NC(=O)[C@H](CCCCN)NC(=O)[C@H](CO)NC(=O)[C@@H](NC(=O)[C@H](CC(=O)O)NC(=O)[C@H](CO)NC(=O)[C@@H](NC(=O)[C@](C)(Cc1ccccc1)NC(=O)[C@H](CO)NC(=O)CNC(=O)[C@H](Cc1c[nH]cn1)NC(=O)C(C)(C)NC(=O)[C@@H](N)Cc1c[nH]cn1)[C@@H](C)O)C(C)C)C(C)C)C(=O)N[C@@H](C)C(=O)N[C@@H](CC(N)=O)C(=O)N[C@H](C(N)=O)[C@@H](C)O [Peptide 352] (H-H[Aib]HGS[αMeF]TSDVSK[αMeF]LDSQAAQDFVK([PEG2-PEG2-γGlu-γGlu-C18 diacid])WIANT-NH2),1.4
5,"CC[C@H](C)[C@H](NC(=O)[C@H](Cc1c[nH]c2ccccc12)NC(=O)[C@H](CCCCNC(=O)COCCOCCNC(=O)COCCOCCNC(=O)CC[C@H](NC(=O)CCCCCCCCCCCCCCCCCCC(=O)O)C(=O)O)NC(=O)[C@@H](NC(=O)[C@H](Cc1ccccc1)NC(=O)[C@H](CC(=O)O)NC(=O)[C@H](CCC(N)=O)NC(=O)[C@H](C)NC(=O)C(C)(C)NC(=O)[C@H](CCCNC(=N)N)NC(=O)[C@H](CO)NC(=O)[C@H](CC(=O)O)NC(=O)[C@H](CC(C)C)NC(=O)[C@](C)(Cc1ccccc1)NC(=O)[C@H](CCCCN)NC(=O)[C@H](CO)NC(=O)[C@@H](NC(=O)[C@H](CC(=O)O)NC(=O)[C@H](CO)NC(=O)[C@@H](NC(=O)[C@](C)(Cc1ccccc1)NC(=O)[C@H](CO)NC(=O)CNC(=O)[C@H](Cc1c[nH]cn1)NC(=O)C(C)(C)NC(=O)[C@@H](N)Cc1c[nH]cn1)[C@@H](C)O)C(C)C)C(C)C)C(=O)N[C@@H](C)C(=O)N[C@@H](CC(N)=O)C(=O)N[C@H](C(N)=O)[C@@H](C)O [Peptide 368, H(Aib)HGS(αMePhe)TSDVSK(αMePhe)LDSR(Aib)AQDFVK(O2OC-O2OC-γE-C20diacid)24WIANT-amide] (H-H[Aib]HGS[αMeF]TSDVSK[αMeF]LDSR[Aib]AQDFVK([AEEA-AEEA-γGlu-C20 diacid])WIANT-NH2; N-terminus assumed)",3.1
6,CC[C@H](C)[C@H](NC(=O)[C@H](Cc1c[nH]c2ccccc12)NC(=O)[C@H](CCCCNC(=O)COCCOCCNC(=O)COCCOCCNC(=O)CC[C@H](NC(=O)CCCCCCCCCCCCCCCCC(=O)O)C(=O)O)NC(=O)[C@@H](NC(=O)[C@](C)(Cc1ccccc1)NC(=O)[C@H](CC(=O)O)NC(=O)[C@H](CCC(N)=O)NC(=O)[C@H](C)NC(=O)[C@H](C)NC(=O)[C@H](CCC(N)=O)NC(=O)[C@H](CO)NC(=O)[C@H](CC(=O)O)NC(=O)[C@H](CC(C)C)NC(=O)[C@](C)(Cc1ccccc1)NC(=O)[C@H](CCCCN)NC(=O)[C@H](CO)NC(=O)[C@@H](NC(=O)[C@H](CC(=O)O)NC(=O)[C@H](CO)NC(=O)[C@@H](NC(=O)[C@](C)(Cc1ccccc1)NC(=O)[C@H](CO)NC(=O)CNC(=O)[C@H](Cc1c[nH]cn1)NC(=O)C(C)(C)NC(=O)[C@@H](N)Cc1c[nH]cn1)[C@@H](C)O)C(C)C)C(C)C)C(=O)N[C@@H](C)C(=O)N[C@@H](CC(N)=O)C(=O)N[C@H](C(N)=O)[C@@H](C)O [Peptide 370] (H-H[Aib]HGS[αMeF]TSDVSK[αMeF]LDSQAAQD[αMeF]VK([AEEA-AEEA-γGlu-C18 diacid])WIANT-NH2; N-terminus assumed),1.1
7,CC[C@H](C)[C@H](NC(=O)[C@H](CO)NC(=O)[C@H](CCCCNC(=O)COCCOCCNC(=O)COCCOCCNC(=O)CC[C@H](NC(=O)CCCCCCCCCCCCCCCCC(=O)O)C(=O)O)NC(=O)[C@@H](NC(=O)[C@](C)(Cc1ccccc1)NC(=O)[C@H](CC(=O)O)NC(=O)[C@H](CCC(N)=O)NC(=O)[C@H](C)NC(=O)[C@H](C)NC(=O)[C@H](CCCNC(=N)N)NC(=O)[C@H](CO)NC(=O)[C@H](CC(=O)O)NC(=O)[C@H](CC(C)C)NC(=O)[C@](C)(Cc1ccccc1)NC(=O)[C@H](CCCCN)NC(=O)[C@H](CO)NC(=O)[C@@H](NC(=O)[C@H](CC(=O)O)NC(=O)[C@H](CO)NC(=O)[C@@H](NC(=O)[C@](C)(Cc1ccccc1)NC(=O)[C@H](CO)NC(=O)CNC(=O)[C@H](Cc1c[nH]cn1)NC(=O)C(C)(C)NC(=O)[C@@H](N)Cc1c[nH]cn1)[C@@H](C)O)C(C)C)C(C)C)C(=O)N[C@@H](C)C(=O)N[C@@H](CC(N)=O)C(=O)N[C@H](C(N)=O)[C@@H](C)O [Peptide 379] (H-H[Aib]HGS[αMeF]TSDVSK[αMeF]LDSRAAQD[αMeF]VK([AEEA-AEEA-γGlu-C18 diacid])SIANT-NH2),2.4

# Same assay, conditions: Table 9; % GLP-1R activity relative to GLP-1 / % GlucR activity relative to glucagon
row,Molecule,% Relative Potency Ratio
1,H(Aib)HGS(αMePhe)TSDK(O2OC-O2OC-γE-γE-C20diacid)10SK(αMePhe)LDSRAAQD(αMePhe)VQ(Aib)IANT-amide [Peptide 391],49.1

# Same assay, conditions: Table 10; % GLP-1R activity relative to GLP-1 / % GlucR activity relative to glucagon
row,Molecule,% Relative Potency Ratio
1,HSQGS(αMePhe)TSDVSKK((PEG)2-(PEG)2-γE-VE-Palmitoyl)13LDS(B-dimethylArg)AAQD(aMePhe)VE(Aib)LANT-amide [Peptide 400],16.7
